Test results taken from patent US8765728B2, “[1,5]-diazocin derivatives” (MelliTech, priority 2009, dated 2014).

The molecules below were run on Min6 cell (assay: Insulin secretion response of beta cell line to formula I compounds (insulin ELISA)). Conditions: rank according to % increase versus control at most effective dose.
Format: cell-based
Procedure: The secretory responses of beta cell lines to glucose were tested as described in Merglen et al. Endocrinology, (2004) 145(2):667-78.
Briefly, after incubation with compounds from formula I or control vehicle, cells were maintained for 2 hours in glucose-free culture medium. The cells were then washed twice and preincubated for 30 minutes at 37° C. in glucose-free Krebs-Ringer bicarbonate HEPES buffer (KRBH: 135 mM NaCl, 3.6 mM KCl, 5 mM NaHCO3, 0.5 mM NaH2PO4, 0.5 mM MgCl2, 1.5 mM CaCl2, and 10 mM HEPES, pH 7.4). BSA (0.1%) was added as an insulin carrier. Cells were subsequently washed with glucose-free KRBH and then incubated for 30 minutes at 37° C. in KRBH containing different concentrations of glucose. The reaction was stopped by placing the plates on ice; supernatants were collected to determine insulin secretion and cells were used for intracellular insulin content following acid-ethanol extraction. Insulin was measured by ELISA (Linco) according to the manufacturer's instructions.

| Molecule | Insulin secretion (Min6 cell) Range 1 to 5 |
| --- | --- |
| 5-[3-(allyloxy)-2-hydroxypropyl]-9-ethyl-6,7,9,10-tetrahydro[1,3]dioxolo[4,5-i][1,5]benzodiazocin-8(5H)-one [Compound 164] | 1 (1: 90-110% of control) |
| 5-benzyl-1-(isoxazole-5-carbonyl)-2,3,5,6-tetrahydrobenzo[b][1,5]diazocin-4(1H)-one [Compound 157] | 1 (1: 90-110% of control) |
| 9-ethyl-5-(2-hydroxy-3-phenylpropyl)-6,7,9,10-tetrahydro[1,3]dioxolo[4,5-i][1,5]benzodiazocin-8(5H)-one [Compound 165] | 1 (1: 90-110% of control) |
| COc1ccc2c(c1)CN(C1CC1)C(=O)CCN2 [Compound 1, 5-cyclopropyl-8-methoxy-2,3,5,6-tetrahydrobenzo[b][1,5]diazocin-4(1H)-one] | 2 (2: 110-120% of control) |
| COc1ccc2c(c1)CN(C1CC1)C(=O)CCN2CC(O)COc1ccccc1 (stereo not drawn) [Compound 2, 5-cyclopropyl-1-(2-hydroxy-3-phenoxypropyl)-8-methoxy-2,3,5,6-tetrahydrobenzo[b][1,5]diazocin-4(1H)-one] | 3 (3: 120-140% of control) |
| COc1ccc2c(c1)CN(C1CC1)C(=O)CCN2CCc1ccc(Cl)cc1 [Compound 3, 1-(4-chlorophenethyl)-5-cyclopropyl-8-methoxy-2,3,5,6-tetrahydrobenzo[b][1,5]diazocin-4(1H)-one] | 1 (1: 90-110% of control) |
| COc1ccc2c(c1)CN(C1CC1)C(=O)CCN2C(=O)c1cc(C)on1 [Compound 4, 5-cyclopropyl-8-methoxy-1-(5-methylisoxazole-3-carbonyl)-2,3,5,6-tetrahydrobenzo[b][1,5]diazocin-4(1H)-one] | 2 (2: 110-120% of control) |
| COc1ccc2c(c1)CN(C1CC1)C(=O)CCN2CC(=O)c1ccc(F)cc1 [Compound 5, 5-cyclopropyl-1-(2-(4-fluorophenyl)-2-oxoethyl)-8-methoxy-2,3,5,6-tetrahydrobenzo[b][1,5]diazocin-4(1H)-one] | 3 (3: 120-140% of control) |
| COc1ccc2c(c1)CN(C1CC1)C(=O)CCN2CC(O)c1ccc(F)cc1 (stereo not drawn) [Compound 6, 5-cyclopropyl-1-(2-(4-fluorophenyl)-2-hydroxyethyl)-8-methoxy-2,3,5,6-tetrahydrobenzo[b][1,5]diazocin-4(1H)-one] | 3 (3: 120-140% of control) |
| O=C1CCNc2ccc(Br)cc2CN1C1CC1 [Compound 7, 8-bromo-5-cyclopropyl-2,3,5,6-tetrahydrobenzo[b][1,5]diazocin-4(1H)-one] | 1 (1: 90-110% of control) |
| O=C1CCNc2ccc(F)cc2CN1C1CC1 [Compound 8, 5-cyclopropyl-8-fluoro-2,3,5,6-tetrahydrobenzo[b][1,5]diazocin-4(1H)-one] | 3 (3: 120-140% of control) |
| O=C1CCNc2ncccc2CN1C1CC1 [Compound 9, 5-cyclopropyl-2,3,5,6-tetrahydropyrido[2,3-b][1,5]diazocin-4(1H)-one] | 2 (2: 110-120% of control) |
| O=C1CCNc2ccc(F)cc2CN1 [Compound 10, 8-fluoro-2,3,5,6-tetrahydrobenzo[b][1,5]diazocin-4(1H)-one] | 4 (4: 140-170% of control) |
| COc1ccc2c(c1)CN(C1CC1)C(=O)CCN2CC(=O)c1ccccc1 [Compound 11, 5-cyclopropyl-8-methoxy-1-(2-oxo-2-phenylethyl)-2,3,5,6-tetrahydrobenzo[b][1,5]diazocin-4(1H)-one] | 1 (1: 90-110% of control) |
| COc1ccc2c(c1)CN(C1CC1)C(=O)CCN2CC(=O)c1cc(OC)ccc1OC [Compound 12, 5-cyclopropyl-1-(2-(2,5-dimethoxyphenyl)-2-oxoethyl)-8-methoxy-2,3,5,6-tetrahydrobenzo[b][1,5]diazocin-4(1H)-one] | 1 (1: 90-110% of control) |
| COc1ccc2c(c1)CN(C1CC1)C(=O)CCN2CC(=O)c1ccccc1OC [Compound 13, 5-cyclopropyl-8-methoxy-1-(2-(2-methoxyphenyl)-2-oxoethyl)-2,3,5,6-tetrahydrobenzo[b][1,5]diazocin-4(1H)-one] | 1 (1: 90-110% of control) |
| COc1ccc2c(c1)CN(C1CC1)C(=O)CCN2CC(=O)c1ccc(Cl)cc1 [Compound 14, 1-(2-(4-chlorophenyl)-2-oxoethyl)-5-cyclopropyl-8-methoxy-2,3,5,6-tetrahydrobenzo[b][1,5]diazocin-4(1H)-one] | 3 (3: 120-140% of control) |
| COc1ccc2c(c1)CN(C1CC1)C(=O)CCN2CC(=O)c1ccc2c(c1)OCCO2 [Compound 15, 5-cyclopropyl-1-(2-(2,3-dihydrobenzo[b][1,4]dioxin-6-yl)-2-oxoethyl)-8-methoxy-2,3,5,6-tetrahydrobenzo[b][1,5]diazocin-4(1H)-one] | 3 (3: 120-140% of control) |
| COc1ccc2c(c1)CN(C1CC1)C(=O)CCN2CC(=O)c1ccc(N2CCCC2)cc1 [Compound 16, 5-cyclopropyl-8-methoxy-1-(2-oxo-2-(4-(pyrrolidin-1-yl)phenyl)ethyl)-2,3,5,6-tetrahydrobenzo[b][1,5]diazocin-4(1H)-one] | 4 (4: 140-170% of control) |
| COc1ccc2c(c1)CN(C1CC1)C(=O)CCN2CC(O)c1ccccc1 (stereo not drawn) [Compound 17, 5-cyclopropyl-1-(2-hydroxy-2-phenylethyl)-8-methoxy-2,3,5,6-tetrahydrobenzo[b][1,5]diazocin-4(1H)-one] | 2 (2: 110-120% of control) |
| COc1ccc2c(c1)CN(C1CC1)C(=O)CCN2C[C@@H](O)COCc1ccccc1 [Compound 18, (R)-1-(3-(benzyloxy)-2-hydroxypropyl)-5-cyclopropyl-8-methoxy-2,3,5,6-tetrahydrobenzo[b][1,5]diazocin-4(1H)-one] | 2 (2: 110-120% of control) |
| O=C1CCN(C[C@@H](O)COCc2ccccc2)c2ccc(F)cc2CN1C1CC1 [Compound 19, (R)-1-(3-(benzyloxy)-2-hydroxypropyl)-5-cyclopropyl-8-fluoro-2,3,5,6-tetrahydrobenzo[b][1,5]diazocin-4(1H)-one] | 1 (1: 90-110% of control) |
| COc1cccc(C(=O)CN2CCC(=O)N(C3CC3)Cc3cc(OC)ccc32)c1 [Compound 20, 5-cyclopropyl-8-methoxy-1-(2-(3-methoxyphenyl)-2-oxoethyl)-2,3,5,6-tetrahydrobenzo[b][1,5]diazocin-4(1H)-one] | 1 (1: 90-110% of control) |
| COc1ccc(C(=O)CN2CCC(=O)N(C3CC3)Cc3cc(OC)ccc32)cc1 [Compound 21, 5-cyclopropyl-8-methoxy-1-(2-(4-methoxyphenyl)-2-oxoethyl)-2,3,5,6-tetrahydrobenzo[b][1,5]diazocin-4(1H)-one] | 2 (2: 110-120% of control) |
| COc1ccc2c(c1)CN(C1CC1)C(=O)CCN2CC(=O)c1cccc(F)c1 [Compound 22, 5-cyclopropyl-1-(2-(3-fluorophenyl)-2-oxoethyl)-8-methoxy-2,3,5,6-tetrahydrobenzo[b][1,5]diazocin-4(1H)-one] | 2 (2: 110-120% of control) |
| COc1ccc2c(c1)CN(C1CC1)C(=O)CCN2CC(=O)c1ccc(OC(F)(F)F)cc1 [Compound 23, 5-cyclopropyl-8-methoxy-1-(2-oxo-2-(4-(trifluoromethoxy)phenyl)ethyl)-2,3,5,6-tetrahydrobenzo[b][1,5]diazocin-4(1H)-one] | 1 (1: 90-110% of control) |
| COc1ccc2c(c1)CN(C1CC1)C(=O)CCN2CC(=O)c1ccc(F)c(F)c1 [Compound 24, 5-cyclopropyl-1-(2-(3,4-difluorophenyl)-2-oxoethyl)-8-methoxy-2,3,5,6-tetrahydrobenzo[b][1,5]diazocin-4(1H)-one] | 2 (2: 110-120% of control) |
| COc1ccc2c(c1)CN(C1CC1)C(=O)CCN2CC(O)c1cc(OC)ccc1OC (stereo not drawn) [Compound 25, 5-cyclopropyl-1-(2-(2,5-dimethoxyphenyl)-2-hydroxyethyl)-8-methoxy-2,3,5,6-tetrahydrobenzo[b][1,5]diazocin-4(1H)-one] | 2 (2: 110-120% of control) |
| COc1ccc2c(c1)CN(C1CC1)C(=O)CCN2CC(O)c1ccccc1OC (stereo not drawn) [Compound 26, 5-cyclopropyl-1-(2-hydroxy-2-(2-methoxyphenyl)ethyl)-8-methoxy-2,3,5,6-tetrahydrobenzo[b][1,5]diazocin-4(1H)-one] | 2 (2: 110-120% of control) |
| COc1ccc2c(c1)CN(C1CC1)C(=O)CCN2CC(O)c1ccc(Cl)cc1 (stereo not drawn) [Compound 27, 1-(2-(4-chlorophenyl)-2-hydroxyethyl)-5-cyclopropyl-8-methoxy-2,3,5,6-tetrahydrobenzo[b][1,5]diazocin-4(1H)-one] | 4 (4: 140-170% of control) |
